Test results taken from US9776972B2, “Pyrazole derivatives as arginine methyltransferase inhibitors and uses thereof” (priority 2013, dated 2017).
Where two headings read alike, the source gives them in different places.

Columns and labels:
human PRMT1 = biological target: T1, human PRMT1 (Homo sapiens, UniProt Q99873); experiment: PRMT1 Biochemical Assay (3H-SAM Flashplate, peptide substrate)
T1 construct: GST-tagged PRMT1; made in house; host or cells: High Five insect cells (baculovirus)
Procedure, shortened: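 GST-tagged PRMT1 from baculovirus-infected cells, preincubated with compounds 30 min at room temperature in 20 mM Bicine pH 7.6, 1 mM TCEP, 0.005% BSG, 0.002% Tween 20. Reaction started with ³H-SAM plus biotinylated peptide, stopped with 300 µM cold SAM.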

human PRMT8 = human PRMT8 (Homo sapiens, UniProt Q9NR22); experiment: PRMT8 Biochemical Assay (3H-SAM Flashplate, peptide substrate)
human PRMT8, sequence (Q9NR22 whole entry): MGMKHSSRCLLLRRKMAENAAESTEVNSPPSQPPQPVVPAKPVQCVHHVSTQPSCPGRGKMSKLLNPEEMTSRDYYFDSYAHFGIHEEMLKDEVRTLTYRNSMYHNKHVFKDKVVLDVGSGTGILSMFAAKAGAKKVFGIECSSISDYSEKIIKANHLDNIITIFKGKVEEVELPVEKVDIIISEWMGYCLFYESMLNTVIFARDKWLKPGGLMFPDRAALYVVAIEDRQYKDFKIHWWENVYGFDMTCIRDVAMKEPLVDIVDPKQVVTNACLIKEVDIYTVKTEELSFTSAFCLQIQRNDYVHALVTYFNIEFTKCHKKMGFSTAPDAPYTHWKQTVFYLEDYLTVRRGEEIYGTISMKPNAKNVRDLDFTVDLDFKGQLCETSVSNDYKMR
From the text: S-adenosylmethionine (SAM), S-adenosylhomocysteine (SAH), bicine, Tween20, dimethylsulfoxide (DMSO), bovine skin gelatin (BSG), isopropyl-β-D-thiogalactopyranoside (IPTG), and Tris(2-carboxyethyl)phosphine hydrochloride solution (TCEP) were purchased from Sigma-Aldrich at the highest level of purity possible. ^3H-SAM was purchase from American Radiolabeled Chemicals with a specific activity of 80 Ci/mmol. 384-well streptavidin Flashplates were purchased from PerkinElmer.
Peptide representative of human histone H4 residues 31-45 was synthesized with an N-terminal linker-affinity tag motif and a C-terminal amide cap by 21st Century Biochemicals.
E. coli (BL21(DE3) Gold, Stratagene) made competent by the CaCl2 method were transformed with the PRMT8 construct and ampicillin selection. Protein over-expression was accomplished by growing the PRMT8 expressing E. coli clone and inducing expression with 0.3 mM IPTG at 16° C. The culture was grown for 12 hours, harvested by centrifugation, and stored at −80° C. for purification.
GST-tagged PRMT8 was eluted with 50 mM Tris, 2 mM glutathione, pH 7.8. Pooled fractions were cleaved by thrombin (10 U) and dialysed in buffer A. GST was removed by reloading the cleaved protein sample onto glutathione sepharose column and PRMT8 was collected in the flow-through fractions. PRMT8 was purified further by ceramic hydroxyapatite chromatography. The column was washed with 50 mM phosphate buffer, 100 mM NaCl, 5% glycerol, 5 mM β-mercaptoethanol, pH 7.8 and PRMT8 was eluted by 100 mM phosphate in the same buffer. Protein was concentrated and buffer was exchanged to 50 mM Tris, 300 mM NaCl, 10% glycerol, 5 mM β-mercaptoethanol, pH 7.8 by ultrafiltration.
General Procedure for PRMT8 Enzyme Assays on Peptide Substrates.
The assays were all performed in a buffer consisting of 20 mM Bicine (pH=7.6), 1 mM TCEP, 0.005% BSG, and 0.002% Tween 20, prepared on the day of use. […] DMSO (1 ul) was added to Columns 11, 12, 23, 24, rows A-H for the maximum signal control and 1 ul of SAH, a known product and inhibitor of PRMT8, was added to columns 11, 12, 23, 24, rows I-P for the minimum signal control. A cocktail (40 ul) containing the PRMT8 enzyme was added by Multidrop Combi (Thermo-Fisher). The compounds were allowed to incubate with PRMT8 for 30 min at room temperature, then a cocktail (10 ul) containing ^3H-SAM and peptide was added to initiate the reaction (final volume=51 ul). […] The assays were stopped by the addition of non-radiolabeled SAM (10 ul) to a final concentration of 400 uM, which dilutes the ^3H-SAM to a level where its incorporation into the peptide substrate is no longer detectable. 50 ul of the reaction in the 384-well polypropylene plate was then transferred to a 384-well Flashplate and the biotinylated peptides were allowed to bind to the streptavidin surface for at least 1 hour before being washed once with 0.1% Tween20 in a Biotek ELx405 plate washer. The plates were then read in a PerkinElmer TopCount plate reader to measure the quantity of ^3H-labeled peptide bound to the Flashplate surface, measured as disintegrations per minute (dpm) or alternatively, referred to as counts per minute (cpm).
Where dpm=disintegrations per minute, cmpd=signal in assay well, and min and max are the respective minimum and maximum signal controls.
Where top and bottom are the normally allowed to float, but may be fixed at 100 or 0 respectively in a 3-parameter fit. The Hill Coefficient normally allowed to float but may also be fixed at 1 in a 3-parameter fit. Y is the % inhibition and X is the compound concentration.

[1] = single experiment or average of multiple experiments

T1 sequence (Q99873 with tags, fused parts or gaps): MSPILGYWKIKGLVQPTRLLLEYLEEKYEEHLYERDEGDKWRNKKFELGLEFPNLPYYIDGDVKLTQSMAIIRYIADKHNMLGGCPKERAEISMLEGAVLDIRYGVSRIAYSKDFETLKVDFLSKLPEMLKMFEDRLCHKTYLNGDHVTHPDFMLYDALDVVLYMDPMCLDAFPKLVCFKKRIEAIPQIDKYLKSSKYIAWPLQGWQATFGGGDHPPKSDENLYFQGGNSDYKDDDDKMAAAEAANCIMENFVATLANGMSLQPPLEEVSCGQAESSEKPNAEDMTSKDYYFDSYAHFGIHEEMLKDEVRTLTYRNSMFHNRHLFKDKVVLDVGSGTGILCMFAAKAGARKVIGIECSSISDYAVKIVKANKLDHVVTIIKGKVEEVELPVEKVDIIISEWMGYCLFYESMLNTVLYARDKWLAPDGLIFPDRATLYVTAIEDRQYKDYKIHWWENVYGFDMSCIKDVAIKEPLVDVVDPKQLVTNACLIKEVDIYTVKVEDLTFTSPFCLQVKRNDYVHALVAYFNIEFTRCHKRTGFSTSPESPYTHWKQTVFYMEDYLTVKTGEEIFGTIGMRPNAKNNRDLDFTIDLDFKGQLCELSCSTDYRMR

SMILES | IC50 (human PRMT1) [nM] | IC50 (human PRMT1; [1]) [nM] | IC50 (human PRMT8) [nM] | IC50 (human PRMT8; [1]) [nM]
CNCCN(C)Cc1c[nH]nc1-c1ccc(OCC2CCOCC2)cc1 [Compound 284] | < 100 | 13.3 | < 100 | 90.2
CNCCN(C)Cc1c[nH]nc1-c1ccc(OCC2CCOC2)cc1 (stereo not shown) [Compound 285] | < 100 | 14.8 | < 100 | 69.2
CNCCN(C)Cc1c[nH]nc1-c1ccc(OC(CO)C(C)C)cc1 (stereo not shown) [Compound 286] | < 100 | 26.5 | < 100 | 55.3
CNCCN(C)Cc1c[nH]nc1-c1ccc(OCC2CC2)cc1 [Compound 288] | < 100 | 8.97 | < 100 | 14.2
CNCCN(C)Cc1c[nH]nc1-c1ccc(OCCOC)cc1 [Compound 289] | < 100 | 21.1 | < 100 | 46
CCC(CC)Oc1ccc(-c2n[nH]cc2CN(C)CCNC)cc1 [Compound 290] | < 100 | 8.28 | < 100 | 10.6
CNCCN(C)Cc1c[nH]nc1-c1ccc(OC2CCOCC2)c(F)c1 [Compound 291] | < 100 | 15.6 | < 100 | 25.4
CNCCN(C)Cc1c[nH]nc1-c1ccc(OC2CCOCC2)c(Cl)c1 [Compound 292] | < 100 | 27.3 | < 100 | 8.52
CNCCN(C)Cc1c[nH]nc1-c1ccc(OC2CC2)cc1 [Compound 293] | < 100 | 13.5 | < 100 | 28
CNCCN(C)Cc1c[nH]nc1-c1ccc(NC(C)C)cc1 [Compound 295] | < 100 | 28.7 | < 100 | 33.7
CNCCN(C)Cc1c[nH]nc1-c1ccc(NCC(C)C)cc1 [Compound 296] | < 100 | 28.8 | < 100 | 57.6
CNCCN(C)Cc1c[nH]nc1-c1ccc(Oc2ccccc2)c(F)c1 [Compound 297] | < 100 | 3.37 | < 100 | 6.68
CNCCN(C)Cc1c[nH]nc1-c1ccc(OCC2CC2)c(F)c1 [Compound 298] | < 100 | 7.87 | < 100 | 16.3
CNCCN(C)Cc1c[nH]nc1-c1ccc(OC2CCC(O)CC2)cc1 (stereo not shown) [Compound 299] | < 100 | 19.8 | < 100 | 55
CNCCN(C)Cc1c[nH]nc1-c1ccc(N(C)C(C)C)cc1 [Compound 300] | < 100 | 27.9 | < 100 | 64.7
CNCCN(C)Cc1c[nH]nc1-c1ccc(OC2CC2)c(F)c1 [Compound 301] | < 100 | 6.43 | < 100 | 23.5

SMILES | IC50 (human PRMT1) [nM] | IC50 (human PRMT1; [1]) [nM] | IC50 (human PRMT8) [nM] | IC50 (human PRMT8; [1]) [nM]
CNCCN(C)Cc1c[nH]nc1-c1ccc(Oc2ncccn2)cc1 [Compound 302] | < 100 | 33.4 | 101 to 1000 | 123
CNCCN(C)Cc1c[nH]nc1-c1ccc(Oc2cncnc2)cc1 [Compound 303] | < 100 | 27.9 | < 100 | 54.7
CNCCN(C)Cc1c[nH]nc1-c1ccc(OC2CCC2)cc1 [Compound 304] | < 100 | 6.59 | < 100 | 22.4
CNCCN(C)Cc1c[nH]nc1-c1ccc(OC2CCC2)c(F)c1 [Compound 305] | < 100 | 6.36 | < 100 | 18.3
CNCCN(C)Cc1c[nH]nc1-c1ccc(OCC(C)C)cc1 [Compound 306] | < 100 | 7.1 | < 100 | 18.5
CNCCN(C)Cc1c[nH]nc1-c1ccc(OCC2CCC2)cc1 [Compound 307] | < 100 | 5.89 | < 100 | 14
CC[C@@H](C)Oc1ccc(-c2n[nH]cc2CN(C)CCNC)cc1 [Compound 308] | < 100 | 7.07 | < 100 | 14.1
CC[C@H](C)Oc1ccc(-c2n[nH]cc2CN(C)CCNC)cc1 [Compound 309] | < 100 | 6.7 | < 100 | 13
CCC(COC)Oc1ccc(-c2n[nH]cc2CN(C)CCNC)cc1 (stereo not shown) [Compound 310] | < 100 | 14.5 | < 100 | 17
CNCCN(C)Cc1c[nH]nc1-c1ccc(OC(COC)C(C)C)cc1 (stereo not shown) [Compound 311] | < 100 | 21.6 | < 100 | 50.9
CNCCN(C)Cc1c[nH]nc1-c1ccc(Oc2ccncn2)cc1 [Compound 312] | < 100 | 11.6 | < 100 | 90.9
CNCCN(C)Cc1c[nH]nc1-c1ccc(C(C)(C)COC)cc1 [Compound 313] | < 100 | 34.9 | < 100 | 60.1
CNCCN(C)Cc1c[nH]nc1-c1ccc(OC(COC)CC(C)C)cc1 (stereo not shown) [Compound 314] | < 100 | 18.2 | 101 to 1000 | 110
CNCCN(C)Cc1c[nH]nc1-c1ccc(OC2CC(OC)C2)cc1 (stereo not shown) [Compound 315] | < 100 | 23.5 | 101 to 1000 | 108
CNCCN(C)Cc1c[nH]nc1-c1ccc(OC(COC)COC)cc1 [Compound 316] | < 100 | 17.5 | < 100 | 43
